The target in the assay is T1, human TLR7 (Homo sapiens, UniProt Q9NYK1).
T1 construct: host or cells: HEK293 (HEK-Blue hTLR7)
T1 sequence (Q9NYK1 27-1049): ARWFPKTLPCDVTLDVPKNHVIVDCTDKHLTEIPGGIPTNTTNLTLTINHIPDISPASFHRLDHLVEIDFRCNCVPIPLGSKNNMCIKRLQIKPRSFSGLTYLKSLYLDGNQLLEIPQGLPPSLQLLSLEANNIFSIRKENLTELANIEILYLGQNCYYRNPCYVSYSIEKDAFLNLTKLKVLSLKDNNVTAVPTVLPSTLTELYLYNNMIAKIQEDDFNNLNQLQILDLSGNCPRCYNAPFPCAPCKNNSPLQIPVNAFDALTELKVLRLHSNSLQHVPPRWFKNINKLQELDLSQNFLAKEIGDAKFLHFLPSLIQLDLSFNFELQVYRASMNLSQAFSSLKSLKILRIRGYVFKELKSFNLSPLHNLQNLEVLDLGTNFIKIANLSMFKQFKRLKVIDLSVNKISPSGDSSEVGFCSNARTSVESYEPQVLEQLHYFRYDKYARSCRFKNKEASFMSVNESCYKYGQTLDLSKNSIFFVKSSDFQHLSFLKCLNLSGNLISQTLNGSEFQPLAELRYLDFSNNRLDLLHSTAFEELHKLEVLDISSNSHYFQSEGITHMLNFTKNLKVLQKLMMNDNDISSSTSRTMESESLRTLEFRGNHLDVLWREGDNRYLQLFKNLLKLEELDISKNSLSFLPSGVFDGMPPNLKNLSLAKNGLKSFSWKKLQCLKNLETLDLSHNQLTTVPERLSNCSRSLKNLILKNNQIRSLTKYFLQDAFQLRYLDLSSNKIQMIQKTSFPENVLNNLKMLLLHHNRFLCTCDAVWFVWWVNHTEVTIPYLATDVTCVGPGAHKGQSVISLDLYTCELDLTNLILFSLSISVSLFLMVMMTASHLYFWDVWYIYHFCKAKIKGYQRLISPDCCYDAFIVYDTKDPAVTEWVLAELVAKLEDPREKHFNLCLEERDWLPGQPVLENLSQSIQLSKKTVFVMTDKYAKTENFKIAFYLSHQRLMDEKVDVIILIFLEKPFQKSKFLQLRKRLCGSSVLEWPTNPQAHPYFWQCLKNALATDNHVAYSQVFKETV
The assay can be described thus: HEK293-Blue-hTLR-7 cells assay. It is filed as cell-based. The note with it: HEK293-Blue-hTLR7 cells, R848 stimulation, 20 hrs; read-out: HEK/hTLR7 IC50. From the text: A stable HEK293-Blue-hTLR-7 cell line was purchased from InvivoGen (Cat. #: hkb-htlr7, San Diego, California, USA). These cells were originally designed for studying the stimulation of human TLR7 by monitoring the activation of NF-κB. A SEAP (secreted embryonic alkaline phosphatase) reporter gene was placed under the control of the IFN-β minimal promoter fused to five NF-κB and AP-1-binding sites. The SEAP was induced by activating NF-κB and AP-1 via stimulating HEK-Blue hTLR7 cells with TLR7 ligands. Therefore the reporter expression was declined by TLR7 antagonist under the stimulation of a ligand, such as R848 (Resiquimod), for incubation of 20 hrs. The cell culture supernatant SEAP reporter activity was determined using QUANTI-Blue™ kit (Cat. #: rep-qbl, Invivogen, San Diego, Ca, USA) at a wavelength of 640 nm, a detection medium that turns purple or blue in the presence of alkaline phosphatase.
HEK293-Blue-hTLR7 cells were incubated at a density of 250,000-450,000 cells/mL in a volume of 170 μL in a 96-well plate in Dulbecco's Modified Eagle's medium (DMEM) containing 4.5 g/L glucose, 50 U/mL penicillin, […] streptomycin, […] Normocin, […] L-glutamine, 10% […] heat-inactivated fetal bovine serum with addition of 20 μL test compound in a serial dilution in the presence of final DMSO at 1% and 10 μL of 20 μM R848 in above DMEM, perform incubation under 37° C. in a CO2 incubator for 20 hrs. Then 20 μL of the supernatant from each well was incubated with 180 μL Quanti-blue substrate solution at 37° C. for 2 hrs and the absorbance was read at […] using a spectrophotometer. The signaling pathway that TLR7 activation leads to downstream NF-κB activation has been widely accepted, and therefore similar reporter assay was modified for evaluating TLR7 antagonist.

For the compound `Cc1cc(N2CCC(c3cnc(N4CCNCC4)cc3C)[C@H](C)C2)c2cnn(C)c2n1` (single isomer, unassigned) [Example 20, 1,6-dimethyl-4-[cis-3-methyl-4-(4-methyl-6-piperazin-1-yl-3-pyridyl)-1-piperidyl]pyrazolo[3,4-b]pyridine], the IC50 turned out to be 50 nM.

With `Cc1cc(N2CCC(c3cnc(N4CCNCC4)cc3C)[C@H](C)C2)c2cnn(C)c2n1` (single isomer, unassigned) [Example 21, 1,6-dimethyl-4-[trans-3-methyl-4-(4-methyl-6-piperazin-1-yl-3-pyridyl)-1-piperidyl]pyrazolo[3,4-b]pyridine], the IC50 turned out to be 16 nM.

On to `Cc1cc(N2CCC(c3ncc(N4CCNCC4)nc3C)[C@H](C)C2)c2cnn(C)c2n1` (single isomer, unassigned) [Example 22, 1,6-dimethyl-4-[cis-3-methyl-4-(3-methyl-5-piperazin-1-yl-pyrazin-2-yl)-1-piperidyl]pyrazolo[3,4-b]pyridine], for which the IC50 is 49 nM.

For the compound `Cc1cc(N2CCC(c3ncc(N4CCNCC4)nc3C)[C@H](C)C2)c2cnn(C)c2n1` (single isomer, unassigned) [Example 23, 1,6-dimethyl-4-[trans-3-methyl-4-(3-methyl-5-piperazin-1-yl-pyrazin-2-yl)-1-piperidyl]pyrazolo[3,4-b]pyridine], the IC50 was 11 nM.

With `Cc1cc(N2CCC(c3ncc(N4CCNCC4)cc3C)[C@H](C)C2)c2cnn(C)c2n1` (single isomer, unassigned) [Example 24, 1,6-dimethyl-4-[cis-3-methyl-4-(3-methyl-5-piperazin-1-yl-2-pyridyl)-1-piperidyl]pyrazolo[3,4-b]pyridine], the IC50 was 82 nM.

For the compound `Cc1cc(N2CCC(c3ncc(N4CCNCC4)cc3C)[C@H](C)C2)c2cnn(C)c2n1` (single isomer, unassigned) [Example 25, 1,6-dimethyl-4-[trans-3-methyl-4-(3-methyl-5-piperazin-1-yl-2-pyridyl)-1-piperidyl]pyrazolo[3,4-b]pyridine], the IC50 is 9 nM.

In the case of `Cc1cc(N2CCC(c3ccc(N4CCNCC4)cc3)CC2)c2cnn(C)c2n1` [Example 1, 1,6-dimethyl-4-[4-(4-piperazin-1-ylphenyl)-1-piperidyl]pyrazolo[3,4-b]pyridine], the IC50 is 53 nM.

`Cc1cc(N2CCC(c3ccc(N4CCNCC4)cn3)CC2)c2cnn(C)c2n1` [Example 2, 1,6-dimethyl-4-[4-(5-piperazin-1-yl-2-pyridyl)-1-piperidyl]pyrazolo[3,4-b]pyridine]: the IC50 worked out at 27 nM.

Take `Cc1cc(N2CCC(c3cnc(N4CCNCC4)cn3)CC2)c2cnn(C)c2n1` [Example 3, 1,6-dimethyl-4-[4-(5-piperazin-1-ylpyrazin-2-yl)-1-piperidyl]pyrazolo[3,4-b]pyridine]: the IC50 amounted to 20 nM.

As for `Cc1cc(N2CCC(c3ncc(N4CCNCC4)cn3)CC2)c2cnn(C)c2n1` [Example 4, 1,6-dimethyl-4-[4-(5-piperazin-1-ylpyrimidin-2-yl)-1-piperidyl]pyrazolo[3,4-b]pyridine], the IC50 came to 31 nM.

Regarding `Cc1cc(N2CCNCC2)cnc1C1CCN(c2ccnc3c2cnn3C)CC1` [Example 5, 1-methyl-4-[4-(3-methyl-5-piperazin-1-yl-2-pyridyl)-1-piperidyl]pyrazolo[3,4-b]pyridine], the IC50 turned out to be 8 nM.

In the case of `Cc1cc(N2CCNCC2)ncc1C1CCN(c2ccnc3c2cnn3C)CC1` [Example 6, 1-methyl-4-[4-(4-methyl-6-piperazin-1-yl-3-pyridyl)-1-piperidyl]pyrazolo[3,4-b]pyridine], the IC50 amounted to 7 nM.

Consider `Cc1cc(N2CCC(c3ncc(N4CCNCC4)cc3C)CC2)c2cnn(C)c2n1` [Example 7, 1,6-dimethyl-4-[4-(3-methyl-5-piperazin-1-yl-2-pyridyl)-1-piperidyl]pyrazolo[3,4-b]pyridine], for which the IC50 came to 11 nM.

For the compound `Cc1cc(N2CCC(c3cnc(N4CCNCC4)cc3C)CC2)c2cnn(C)c2n1` [Example 8, 1,6-dimethyl-4-[4-(4-methyl-6-piperazin-1-yl-3-pyridyl)-1-piperidyl]pyrazolo[3,4-b]pyridine], the IC50 was 52 nM.

Take `Cc1cc(N2CCC(c3cc(C)c(N4CCNCC4)cn3)CC2)c2cnn(C)c2n1` [Example 9, 1,6-dimethyl-4-[4-(4-methyl-5-piperazin-1-yl-2-pyridyl)-1-piperidyl]pyrazolo[3,4-b]pyridine]: the IC50 stood at 39 nM.

As to `Cc1cc(N2CCC(c3ccc(N4CCNCC4)nc3C)CC2)c2cnn(C)c2n1` [Example 10, 1,6-dimethyl-4-[4-(2-methyl-6-piperazin-1-yl-3-pyridyl)-1-piperidyl]pyrazolo[3,4-b]pyridine], the IC50 turned out to be 39 nM.

`Cc1cc(N2CCC(c3cnc(N4CCNCC4)nc3C)CC2)c2cnn(C)c2n1` [Example 11, 1,6-dimethyl-4-[4-(4-methyl-2-piperazin-1-yl-pyrimidin-5-yl)-1-piperidyl]pyrazolo[3,4-b]pyridine]: the IC50 was determined as 37 nM.

In the case of `CCc1cc(N2CCNCC2)cnc1C1CCN(c2cc(C)nc3c2cnn3C)CC1` [Example 13, 4-[4-(3-ethyl-5-piperazin-1-yl-2-pyridyl)-1-piperidyl]-1,6-dimethyl-pyrazolo[3,4-b]pyridine], the IC50 turned out to be 26 nM.

Consider `COc1cc(N2CCNCC2)cnc1C1CCN(c2cc(C)nc3c2cnn3C)CC1` [Example 14, 4-[4-(3-methoxy-5-piperazin-1-yl-2-pyridyl)-1-piperidyl]-1,6-dimethyl-pyrazolo[3,4-b]pyridine], for which the IC50 was determined as 12 nM.

On to `Cc1cc(N2CCC(c3ncc(N4CC[C@@H](N)[C@@H](F)C4)cc3C)CC2)c2cnn(C)c2n1` [Example 15, (3S,4R)-1-[6-[1-(1,6-dimethylpyrazolo[3,4-b]pyridin-4-yl)-4-piperidyl]-5-methyl-3-pyridyl]-3-fluoro-piperidin-4-amine], for which the IC50 turned out to be 24 nM.

Consider `COC[C@H]1CN(c2cnc(C3CCN(c4cc(C)nc5c4cnn5C)CC3)c(C)c2)CCN1` [Example 16, 4-[4-[5-[(3R)-3-(methoxymethyl)piperazin-1-yl]-3-methyl-2-pyridyl]-1-piperidyl]-1,6-dimethyl-pyrazolo[3,4-b]pyridine], for which the IC50 came out at 23 nM.

For `CO[C@H]1CN(c2cnc(C3CCN(c4cc(C)nc5c4cnn5C)CC3)c(C)c2)CC[C@@H]1N` [Example 17, (3S,4S)-1-[6-[1-(1,6-dimethylpyrazolo[3,4-b]pyridin-4-yl)-4-piperidyl]-5-methyl-3-pyridyl]-3-methoxy-piperidin-4-amine], the IC50 worked out at 22 nM.

For `CO[C@@H]1CN(c2cnc([C@@H]3CCN(c4cc(C)nc5c4cnn5C)C[C@H]3C)c(C)c2)C[C@H]1N` [Example 26, (3R,4R)-1-[6-[(3S,4R)-1-(1,6-dimethylpyrazolo[3,4-b]pyridin-4-yl)-3-methyl-4-piperidyl]-5-methyl-3-pyridyl]-4-methoxy-pyrrolidin-3-amine], the IC50 stood at 12 nM.

As for `Cc1cc(N2CC[C@@H](c3ncc(N4CC5(CNCCO5)C4)cc3C)[C@H](C)C2)c2cnn(C)c2n1` [Example 27, 2-[6-[(3S,4R)-1-(1,6-dimethylpyrazolo[3,4-b]pyridin-4-yl)-3-methyl-4-piperidyl]-5-methyl-3-pyridyl]-5-oxa-2,8-diazaspiro[3.5]nonane], the IC50 is 9 nM.

Source of the values: patent publication US20240360126A1, “PYRAZOLO[3,4-B]PYRIDINE COMPOUNDS FOR THE TREATMENT OF AUTOIMMUNE DISEASE” (Hoffmann-La Roche Inc., priority 2021, published 2024).
